Results reported in ChEMBL document CHEMBL3045236, “Conventional and microwave techniques for synthesis and antimicrobial studies of novel 1-[2-(2-chloro(3-quinolyl))-5-(4-nitrophenyl)-(1,3,4-oxadiazolin-3-yl)]-3-(aryl)prop-2-en-1-ones” (2012).
≈ marks a conversion by molar mass, not a printed value.

Key:
Format in all cases: functional
Aspergillus clavatus = assay: Antimicrobial activity against Aspergillus clavatus MTCC 1323
Aspergillus niger = assay: Antimicrobial activity against Aspergillus niger MTCC 282
Candida albicans = assay: Antimicrobial activity against Candida albicans MTCC 227
Streptococcus pyogenes = assay: Antimicrobial activity against Streptococcus pyogenes MTCC 442 after 24 and 48 hr by serial broth dilution method
Staphylococcus aureus = assay: Antimicrobial activity against Staphylococcus aureus MTCC 96 after 24 and 48 hr by serial broth dilution method
Pseudomonas aeruginosa = assay: Antimicrobial activity against Pseudomonas aeruginosa MTCC 1688 after 24 and 48 hr by serial broth dilution method
Escherichia coli = assay: Antimicrobial activity against Escherichia coli MTCC 443 after 24 and 48 hr by serial broth dilution method

Compound	MIC (Aspergillus clavatus) [µg/mL]	MIC (Aspergillus niger) [µg/mL]	MIC (Candida albicans) [µg/mL]	MIC (Streptococcus pyogenes) [µg/mL]	MIC (Staphylococcus aureus) [µg/mL]	MIC (Pseudomonas aeruginosa) [µg/mL]	MIC (Escherichia coli) [µg/mL]
Cc1ccc(/C=C/C(=O)N2N=C(c3ccc([N+](=O)[O-])cc3)OC2c2cc3ccccc3nc2Cl)cc1 (stereo unspecified)	1000 (≈ 2000 µM)	100 (≈ 200 µM)	250 (≈ 501 µM)	250 (≈ 501 µM)	200 (≈ 401 µM)	100 (≈ 200 µM)	200 (≈ 401 µM)
COc1ccc(/C=C/C(=O)N2N=C(c3ccc([N+](=O)[O-])cc3)OC2c2cc3ccccc3nc2Cl)cc1 (stereo unspecified)	100 (≈ 194 µM)	1000 (≈ 1940 µM)	500 (≈ 971 µM)	100 (≈ 194 µM)	100 (≈ 194 µM)	500 (≈ 971 µM)	100 (≈ 194 µM)
O=C(/C=C/c1cccc(Cl)c1)N1N=C(c2ccc([N+](=O)[O-])cc2)OC1c1cc2ccccc2nc1Cl (stereo unspecified)	500 (≈ 963 µM)	100 (≈ 193 µM)	100 (≈ 193 µM)	100 (≈ 193 µM)	100 (≈ 193 µM)	200 (≈ 385 µM)	100 (≈ 193 µM)
O=C(/C=C/c1ccc(Cl)cc1)N1N=C(c2ccc([N+](=O)[O-])cc2)OC1c1cc2ccccc2nc1Cl (stereo unspecified)	1000 (≈ 1930 µM)	200 (≈ 385 µM)	100 (≈ 193 µM)	500 (≈ 963 µM)	1000 (≈ 1930 µM)	100 (≈ 193 µM)	200 (≈ 385 µM)
O=C(/C=C/c1ccccc1O)N1N=C(c2ccc([N+](=O)[O-])cc2)OC1c1cc2ccccc2nc1Cl (stereo unspecified)	500 (≈ 998 µM)	500 (≈ 998 µM)	1000 (≈ 2000 µM)	250 (≈ 499 µM)	500 (≈ 998 µM)	250 (≈ 499 µM)	500 (≈ 998 µM)
O=C(/C=C/c1ccc(O)cc1)N1N=C(c2ccc([N+](=O)[O-])cc2)OC1c1cc2ccccc2nc1Cl (stereo unspecified)	500 (≈ 998 µM)	100 (≈ 200 µM)	500 (≈ 998 µM)	500 (≈ 998 µM)	100 (≈ 200 µM)	50 (≈ 99.8 µM)	250 (≈ 499 µM)
CC1(C)S[C@@H]2[C@H](NC(=O)[C@H](N)c3ccccc3)C(=O)N2[C@H]1C(=O)O [AMPICILLIN]	–	–	–	100 (≈ 286 µM)	250 (≈ 715 µM)	100 (≈ 286 µM)	100 (≈ 286 µM)

Results, then the compound that gave them:

MIC (Aspergillus clavatus) [µg/mL]	MIC (Aspergillus niger) [µg/mL]	MIC (Candida albicans) [µg/mL]	MIC (Streptococcus pyogenes) [µg/mL]	MIC (Staphylococcus aureus) [µg/mL]	MIC (Pseudomonas aeruginosa) [µg/mL]	MIC (Escherichia coli) [µg/mL]	Compound
100 (≈ 174 µM)	100 (≈ 174 µM)	100 (≈ 174 µM)	500 (≈ 870 µM)	500 (≈ 870 µM)	200 (≈ 348 µM)	200 (≈ 348 µM)	COc1cc(/C=C/C(=O)N2N=C(c3ccc([N+](=O)[O-])cc3)OC2c2cc3ccccc3nc2Cl)cc(OC)c1OC (stereo unspecified)
500 (≈ 963 µM)	500 (≈ 963 µM)	250 (≈ 481 µM)	500 (≈ 963 µM)	500 (≈ 963 µM)	500 (≈ 963 µM)	500 (≈ 963 µM)	O=C(/C=C/c1ccccc1Cl)N1N=C(c2ccc([N+](=O)[O-])cc2)OC1c1cc2ccccc2nc1Cl (stereo unspecified)
100 (≈ 189 µM)	500 (≈ 944 µM)	500 (≈ 944 µM)	200 (≈ 377 µM)	500 (≈ 944 µM)	50 (≈ 94.4 µM)	50 (≈ 94.4 µM)	O=C(/C=C/c1ccccc1[N+](=O)[O-])N1N=C(c2ccc([N+](=O)[O-])cc2)OC1c1cc2ccccc2nc1Cl (stereo unspecified)
500 (≈ 944 µM)	100 (≈ 189 µM)	100 (≈ 189 µM)	100 (≈ 189 µM)	500 (≈ 944 µM)	500 (≈ 944 µM)	1000 (≈ 1890 µM)	O=C(/C=C/c1cccc([N+](=O)[O-])c1)N1N=C(c2ccc([N+](=O)[O-])cc2)OC1c1cc2ccccc2nc1Cl (stereo unspecified)
100 (≈ 189 µM)	1000 (≈ 1890 µM)	500 (≈ 944 µM)	500 (≈ 944 µM)	100 (≈ 189 µM)	500 (≈ 944 µM)	100 (≈ 189 µM)	O=C(/C=C/c1ccc([N+](=O)[O-])cc1)N1N=C(c2ccc([N+](=O)[O-])cc2)OC1c1cc2ccccc2nc1Cl (stereo unspecified)
100 (≈ 200 µM)	200 (≈ 399 µM)	500 (≈ 998 µM)	100 (≈ 200 µM)	200 (≈ 399 µM)	50 (≈ 99.8 µM)	25 (≈ 49.9 µM)	O=C(/C=C/c1cccc(O)c1)N1N=C(c2ccc([N+](=O)[O-])cc2)OC1c1cc2ccccc2nc1Cl (stereo unspecified)
100 (≈ 283 µM)	100 (≈ 283 µM)	500 (≈ 1420 µM)	–	–	–	–	COC1=CC(=O)C[C@@H](C)[C@]12Oc1c(Cl)c(OC)cc(OC)c1C2=O [GRISEOFULVIN]
